Earlier results on 3 molecules are cited in US9714271B2 (ContraVir Pharmaceuticals, Inc., priority 2010, dated 2017).

Each structure is given as a SMILES string.

The series has as its target CyP-A (Homo sapiens, UniProt P62937).

Chain of CyP-A (P62937 whole entry): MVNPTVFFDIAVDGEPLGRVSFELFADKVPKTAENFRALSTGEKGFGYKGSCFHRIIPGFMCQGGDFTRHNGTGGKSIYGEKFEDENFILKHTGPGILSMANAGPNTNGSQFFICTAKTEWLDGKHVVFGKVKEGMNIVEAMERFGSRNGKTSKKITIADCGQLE

Turning to `C/C=C/C[C@@H](C)[C@@H](O)[C@H]1C(=O)N[C@@H](CC)C(=O)N(C)CC(=O)N(C)[C@@H]([C@@H](C)CC)C(=O)N[C@@H](C(C)C)C(=O)N(C)[C@@H](CC(C)C)C(=O)N[C@@H](C)C(=O)N[C@H](C)C(=O)N(C)[C@@H](CC(C)C)C(=O)N(C)[C@@H](CC(C)C)C(=O)N(C)[C@@H](C(C)C)C(=O)N1C` [NIM 811, Melle^4-Cyclosporine], the “binding affinity for CyP-A” value was “retains binding affinity for CyP-A”.

For the molecule `C/C=C/C[C@@H](C)[C@@H](O)[C@H]1C(=O)N[C@@H](CC)C(=O)N(C)[C@H](SCCN(C)C)C(=O)N(C)[C@@H](CC(C)(C)O)C(=O)N[C@@H](C(C)C)C(=O)N(C)[C@@H](CC(C)C)C(=O)N[C@@H](C)C(=O)N[C@H](C)C(=O)N(C)[C@@H](CC(C)C)C(=O)N(C)[C@@H](CC(C)C)C(=O)N(C)[C@@H](C(C)C)C(=O)N1C` [SCY-635, DimethylaminoethylthioSar^3-hydroxyLeu^4-Cyclosporin], the “binding affinity for CyP-A” value is recorded as “retains binding affinity for CyP-A”. As to `C/C=C/C[C@@H](C)[C@@H](O)[C@H]1C(=O)N[C@@H](CC)C(=O)N(C)[C@H](C)C(=O)N(CC)[C@@H](C(C)C)C(=O)N[C@@H](C(C)C)C(=O)N(C)[C@@H](CC(C)C)C(=O)N[C@@H](C)C(=O)N[C@H](C)C(=O)N(C)[C@@H](CC(C)C)C(=O)N(C)[C@@H](CC(C)C)C(=O)N(C)[C@@H](C(C)C)C(=O)N1C` [DEBIO 025, MeAla^3EtVal^4-Cyclosporin], the “binding affinity for CyP-A” value was “retains binding affinity for CyP-A”.
